According to US20230212571A1, “COMPOSITIONS AND METHODS FOR DELIVERING POLYNUCLEOTIDES” (NeOnc Technologies, Inc., priority 2020, published 2023):

How the values were obtained:
AVM-BEC = assay: RT-qPCR mRNA expression in AVM-BEC; format: cell-based, human
Source text: Human surgical specimens were obtained following written informed consent from patients in accordance with Declaration of Helsinki guidelines and the Institutional Review Board (HS-04B053), at Keck School of Medicine, USC. AVM-BECs were isolated from brain tissues of patients who underwent microsurgical AVM resection. Control BECs were isolated from the structurally normal […] of patients who underwent temporal lobectomy for intractable epilepsy. Endothelial cell (EC) isolation and culture were described^5,9. (Stapleton C J, Armstrong D L, Zidovetzki R, Liu C Y, Giannotta S L, Hofman F M. Thrombospondin-1 modulates the angiogenic phenotype of human cerebral arteriovenous malformation endothelial cells. Neurosurgery. 2011; 68(5):1342-1353) (Ferreira R, Santos T, Amar A, et al. Argonaute-2 promotes miR-18a entry in human brain endothelial cells. J Am Heart Assoc. 2014; 3(3):e000968) ECs were only used between passages 3-5. Experiments were performed under shear flow conditions (12 dyn/cm^2) to reproduce arterial flow^6. (Ferreira R, Santos T, Amar A, et al. MicroRNA-18a improves human cerebral arteriovenous malformation endothelial cell function. Stroke. 2014; 45(1):293-297). For hypoxic experiments, cells were cultured in a Galaxy 48R (Eppendorf) incubator at 3% O2. MicroRNAs were co-administered with Ago-2 to increase the cellular uptake of miR-18a^9 (Ferreira R, Santos T, Amar A, et al. Argonaute-2 promotes miR-18a entry in human brain endothelial cells. J Am Heart Assoc. 2014; 3(3):e000968) (FIG. 9). Methods regarding cell treatments and transfections were included in Data.
MiR-18a (hsa-miR-18a-5p, 40 nM, Dharmacon) or a scramble microRNA (40 nM, Dharmacon) in nuclease-free water was added with argonaute 2 (Ago-2, 0.4 nM, Abcam) as the microRNA carrier and stabilizer^9. (Ferreira R, Santos T, Amar A, et al. Argonaute-2 promotes miR-18a entry in human brain endothelial cells. J Am Heart Assoc. 2014; 3(3):e000968). No transfection reagent was used with miR-18a or scramble microRNA treatments. Recombinant human TSP-1 (R&D Systems) stock solution was prepared in PBS and further diluted in culture medium to be used at a final concentration of 1000 ng/mL. Cells were treated during 24 h for mRNA and 48 h for protein expression studies. NEO100 (NeOnc Technologies) stock was prepared in DMSO and used immediately or stored at −20° C.
The extraction and analysis of total mRNA and microRNAs were described^9,13. (Ferreira R, Santos T, Amar A, et al. Argonaute-2 promotes miR-18a entry in human brain endothelial cells. J Am Heart Assoc. 2014; 3(3):e000968) (Marín-Ramos N I, Jhaveri N, Thein T Z, Fayngor R A, Chen T C, Hofman F M. NEO212, a conjugate of temozolomide and perillyl alcohol, blocks the endothelial-to-mesenchymal transition in tumor-associated brain endothelial cells in glioblastoma. Cancer Lett. 2018; 442:170-180). The Human Notch Signaling Pathway RT^2 Profiler PCR Array (Qiagen) was used to analyze the expression of 84 genes related to Notch signaling. For mRNA studies, […] (B2M) was measured for sample normalization. The primer sequences were included in Table 2. For microRNA analysis, RNU44 and U6 snRNA TaqMan microRNA Control Assays were used for normalization of human and mice samples, respectively.

[1] = Pharmacokinetic study of miR-18a in serum and brain by RT-qPCR; format: in vivo, C57BL/6 mice
Source text: All animal protocols were approved by the USC's Institutional Animal Care and Use Committee (IACUC) and strictly adhered to. MiR-18a was co-administered with Ago-2 (0.0008 nmol/mouse) to increase stability and cellular uptake^9 (Ferreira R, Santos T, Amar A, et al. Argonaute-2 promotes miR-18a entry in human brain endothelial cells. J Am Heart Assoc. 2014; 3(3):e000968). (FIG. 9). Details about randomization, blinding, group size and inclusion/exclusion criteria have been included in Methods.
For pharmacokinetic measurements, 0.8 nmol/mouse of miR-18a were administered IV or IN to C57BL/6 mice. At the indicated time points, mice were euthanized, and the serum and brains were collected and flash-frozen in liquid nitrogen (n=6 per time-point and condition). MicroRNAs were isolated using the mirVana™ miRNA Isolation Kit and measured by RT-qPCR as described above.

Substance: hsa-miR-18a-5p (UAGGUGCAUCUAGUGCAGAUAG; chemistry not given here; listed as Homo sapiens) [small non-coding RNA molecule involved in post-transcriptional regulation of gene expression; Dharmacon]
- BMP4 mRNA expression (AVM-BEC; AVM-BEC, 24 h, vs scramble, P=0.0022): normalized
- MMP2 mRNA expression (AVM-BEC; AVM-BEC, P=0.0004): normalized
- MMP9 mRNA expression (AVM-BEC; AVM-BEC, P=0.0091): normalized
- HIF-1α expression (AVM-BEC; AVM-BEC, hypoxia 3% O2): remained unaltered
- HIF-1α expression (AVM-BEC; AVM-BEC, normoxia): significantly (P=0.0025) decreased
- ALK2 mRNA expression (AVM-BEC; AVM-BEC, vs scramble, P<0.0001): normalized
- MGP mRNA expression (AVM-BEC; AVM-BEC, vs scramble, P<0.0001): normalized
- ALK1 mRNA expression (AVM-BEC; AVM-BEC, vs scramble, P=0.0013): normalized
- ALK5 mRNA expression (AVM-BEC; AVM-BEC, vs scramble, P=0.0072): normalized
- BMP9 mRNA expression (AVM-BEC; non-HHT related AVM-BEC, P>0.05): No significant differences
- miR-18a levels compared to scramble microRNA-treated mice ([1]; 0.8 nmol/mouse IV or IN, C57BL/6 mice): approximately 40 times
- retention of miR-18a, IN compared with IV ([1]; 0.8 nmol/mouse, IN administration): longer retention times
- time of highest levels of miR-18a in serum and brains, IV compared with IN ([1]; 0.8 nmol/mouse, IV administration): earlier
- amount of microRNA in the brain, times the basal levels of miR-18a ([1]; IN administration, 0.8 nmol/mouse): approximately 40 times
- time required to reach the peak levels ([1]; IN administration, brain): 2 h
